Measurements: patent publication US20130005718A1 (priority 2009, published 2013)
Values joined by “and” are separate entries in the source; they are usually repeats but may differ in a detail not shown here. Identical values can stand only once. “Also recorded” adds a separate entry of the source.

Experiments:
HCN1 channels = biological target: T1, HCN1 channels (Mus musculus, UniProt O88704); experiment: Two-electrode voltage clamp (TEVC) of HCN1 channel gating in Xenopus oocytes; type: cell-based, murine; conditions: for HCN isoform preference (words): HCN1 versus HCN2, 3 or 4
T1 construct: expressed in transfected cells; host or cells: Xenopus oocytes (cRNA injection)
T1 sequence (O88704 whole entry, canonical isoform): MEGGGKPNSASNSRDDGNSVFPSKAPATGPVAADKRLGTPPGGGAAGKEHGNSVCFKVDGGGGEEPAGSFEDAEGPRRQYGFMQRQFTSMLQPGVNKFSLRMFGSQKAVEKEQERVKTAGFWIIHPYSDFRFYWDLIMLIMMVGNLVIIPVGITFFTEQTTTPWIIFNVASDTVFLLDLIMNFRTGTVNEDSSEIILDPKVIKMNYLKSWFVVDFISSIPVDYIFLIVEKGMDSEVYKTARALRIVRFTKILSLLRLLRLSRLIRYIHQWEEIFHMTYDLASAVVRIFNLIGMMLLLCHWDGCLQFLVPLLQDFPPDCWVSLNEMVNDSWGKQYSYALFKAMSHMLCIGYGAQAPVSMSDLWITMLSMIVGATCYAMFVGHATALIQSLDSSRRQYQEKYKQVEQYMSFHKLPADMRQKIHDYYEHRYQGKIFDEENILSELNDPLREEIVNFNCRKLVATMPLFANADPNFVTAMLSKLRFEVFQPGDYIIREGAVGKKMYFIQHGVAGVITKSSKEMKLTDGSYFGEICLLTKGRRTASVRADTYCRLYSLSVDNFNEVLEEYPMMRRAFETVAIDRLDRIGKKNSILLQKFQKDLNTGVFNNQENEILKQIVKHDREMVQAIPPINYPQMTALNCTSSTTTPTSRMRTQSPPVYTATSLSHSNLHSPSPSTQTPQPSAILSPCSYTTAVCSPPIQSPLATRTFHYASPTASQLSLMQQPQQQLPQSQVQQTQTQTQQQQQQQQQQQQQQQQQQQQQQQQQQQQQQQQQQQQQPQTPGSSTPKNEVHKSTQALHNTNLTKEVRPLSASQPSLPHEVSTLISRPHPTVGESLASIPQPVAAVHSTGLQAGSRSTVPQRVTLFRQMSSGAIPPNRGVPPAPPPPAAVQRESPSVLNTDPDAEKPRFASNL

mice [1] = experiment: Acute toxicity of 2,6-DTBP (behavior and survival); type: in vivo
Protocol: (§1) To examine 2,6-DTBP bioavailability, 32 mice received dihydroxy-β-cyclodextrin (DHβCD) solubilized 2,6-DTBP (see below), DHβCD alone or saline by intraperitoneal (i.p.) injection with a dosing schedule as per behavioral testing (see below). 10-60 minutes after receipt of the appropriate final dose, mice were anesthetized with 2.5-3% isoflurane then exsanguinated by venous puncture. Blood concentration of 2,6-DTBP was determined by gas chromatography (see below). To consider toxicity of a high acute therapeutic dose of 2,6-DTBP, some animals received a single bolus of 80 mg/kg. To consider toxicity of an acute hyper-therapeutic dose of 2,6-DTBP, all animals that received three 40 mg/kg therapeutic doses during animal behavior experiments received a 120 mg/kg bolus immediately after the 180 minutes of behavioral testing window, thereby raising the cumulative dose to 240 mg/kg. The general condition of all of these animals was followed by qualitative observation of behavior (grooming and exploration) and survival. All animals were sacrificed within 7 days after receipt of a 2,6-DTBP/DHβCD injection.

[2] = type: in vivo, mice
Protocol: Samples and standards were prepared as follows.
For the standard calibration curve, aliquots of 2,6-DTBP acutely solubilized in DMSO were added to 200 μl of chloroform plus the thymol internal standard (total DMSO addition was 2 μl in all cases). 200 μl of H2O were then added and the samples were processed as described above. In all cases, 2 μl of the chloroform phase was injected for analysis.
as §1

[3] = tested on: PNL-induced mechanical allodynia and hyperalgesia; experiment: Von Frey fiber test after partial sciatic nerve ligation (PNL); type: in vivo, C57 Black/6J mice
[4] = Protocol: Serial dilutions were then dispersed into the aqueous recording solutions maintaining the DMSO concentration at 0.04% (W/V). […] To this end, appropriate masses of 2,6-DTBP and DHβCD that would yield 6 ml of 1% 2,6-DTBP, in combination with 40% DHβCD, were combined in a Teflon® capped borosilicate vial and heated to 60° C. in a water bath. This temperature is above the melting point of 2,6-DTBP (36° C. (Lorenc et al., 2003) but below that of DHβCD (>200° C. (Loftsson et al., 1996) and is compatible with stability of both reagents (Lorenc et al., 2003; Loftsson et al., 1996 and CAS documentation). After 15 minutes, the molten 2,6-DTBP was intimately mixed with the DHβCD by vigorous vortexing, 200 μl of 60° C. DI H2O added and, following additional vortexing, the vial returned to the water bath for 15-30 minutes. Following addition of 3 more 200 μl aliquots of deionized water (DI H2O), with corresponding incubation and vortexing, the sample was left at 60° C. overnight. The resulting colorless viscous gel was slowly diluted by addition of the required volume of DI H2O adding no more than 200 μl at a time with 15-30 minutes incubation at 60° C. and vortexing after each addition.
The injection port and FID were at 280° C. while the column temperature was 210° C. The split ratio was 2:1 while the column flow was 6.96 ml/min with helium (linear velocity 65 cm/s).
Samples and standards were prepared as follows. To 200 μl of whole blood (drawn following injection of DHβCD or 2,6-DTBP solubilized in DHβCD), 200 μl of chloroform containing 100 nM thymol (Sigma) as internal standard and 2 μl of DMSO were added. Following mixing (vortex for 20 seconds followed by 30 minutes on a rotator) and subsequent centrifugation (5000×g for 10 minutes at 10° C.), the chloroform phase was transferred into a glass gas chromatography vial and washed with an equal volume of 0.5 M NaOH. […] DHβCD was added to the DMSO-solubilized 2,6-DTBP sample and DMSO was added to the DHβCD-solubilized 2,6-DTBP sample so that the final concentrations of DHβCD and DMSO were equivalent. […]

mice [5] = conditions: i.v. 80-100 mg/kg; cited from earlier work
[6] = tested on: PNL-induced thermal hyperalgesia; experiment: Hind paw withdrawal latency (HPWL) to heat source after PNL; type: in vivo, C57 Black/6J mice; conditions: i.p., 15% heat stimulus
[7] = variously reported; cited from earlier work
[8] = in vivo; cited from earlier work
[9] = equivalent ionic conditions; cited from earlier work
[10] = listed as 2,6-di-tert-butylphenol

## CC(C)(C)c1cccc(C(C)(C)C)c1O [2,6-DTBP, 2,6-di-tert-butylphenol]
HCN1 channels
  HCN1 antagonism: strongest potency and highest efficacy of the four derivatives
  HCN isoform preference (words): retains this selectivity profile; also recorded: retains a propofol-like selective efficacy against HCN1 channels
HCN1 channels; 10 μM, n=6
  mean V1/2 of HCN1 activation: −88.3 mV
  mean slope of HCN1 activation: 9.6 mV
HCN1 channels; 10 μM, single cell
  V1/2 of HCN1 activation (Boltzmann fit, cell shown in FIG. 3A): −90.8 mV
  slope of HCN1 activation (Boltzmann fit, cell shown in FIG. 3A): 9.7 mV
HCN1 channels; 20 μM, n=6, difference to control not significant
  post incubation maximal current relative to pre incubation current: 108%
HCN1 channels; 20 μM, solubilized in DHβCD, n=6
  HCN1 ΔV1/2 after 20-minute incubation: −27.7 mV
HCN1 channels; 20 μM, solubilized in DMSO, n=6
  HCN1 ΔV1/2 after 20-minute incubation: −31.9 mV
HCN1 channels; 20 min incubation, Xenopus oocytes, TEVC, read-out: EC50 for hyperpolarization of V1/2 of HCN1 gating (Hill fit)
  EC50: 2.3 µM and ~2.3 µM
HCN1 channels; [10]
  HCN isoform preference (words): preferentially inhibit HCN1 with little efficacy against HCN2, 3 or 4 channels
HCN1 channels; Hill fit of dose-response
  apparent stoichiometry h (Hill coefficient): 1.4
  maximal efficacy ΔV1/2 of HCN1 gating: −32 mV
Mice [1]; 80 mg/kg i.p., four mice, seven day observation
  tolerability of single bolus dose: all mice tolerated this dose well
Mice [1]; 120 mg/kg bolus after three 40 mg/kg doses, cumulative 240 mg/kg i.p.
  tolerability of final bolus: not well tolerated
Mice [1]; acute i.p. dose
  LD75: ~240 mg/kg
Mice [1]; cumulative 240 mg/kg i.p.
  window in which remaining animals died: 14 to 18 h
Mice [1]; i.p.
  therapeutic index: 3 to 5
[2]; 80 mg/kg i.p. in DHβCD
  whole blood concentration indicated from the chromatogram shown: 3.6 µM
[2]; 80 mg/kg i.p. in DHβCD, n=6
  total concentration in whole blood (mean): 10.6 µM
[2]; analgesic dose of 40-120 mg/kg i.p.
  estimated free serum concentration: 0.2 to 0.6 µM
[2]; from total blood concentration after 80 mg/kg i.p.
  expected free concentration: 0.1 to 0.5 µM
[3]; i.p. cumulative dosing, post-PNL mice
  mechanical hyperalgesia/allodynia in ipsilateral paw: ameliorates the behavioral consequences of PNL-induced hyperalgesia; also recorded: selectively suppresses PNL-induced mechanical allodynia and hyperalgesia
[3]; threshold set at PW of 0.1
  mechanical threshold, Logit transformation (allodynia, words): restore selectively the mechanical threshold to that observed in the uninjured paw
[4]
  concentration solubilized in carrier solution: 1 % (W/V)
  solubilization in intralipid emulsion: unsuccessful
  storage stability of the solution: no phase separation or derivative precipitation
Mice [5]
  tolerability of acute intravenous exposure: well tolerated
[6]
  thermal hyperalgesia, ipsilateral HPWL (words): ameliorates the behavioral consequences of PNL-induced hyperalgesia; also recorded: selectively ameliorates PNL-induced thermal hyperalgesia
  thermal nociception, contralateral HPWL: without significantly altering nociceptive behavior
[6]; [10]
  thermal hyperalgesia, ipsilateral HPWL (words): significantly relieve the neuropathic behavior
[7]
  aqueous solubility limit: 20 to 200 µM
[8]
  anesthetic activity: total absence of anesthetic efficacy

## CCCCC/C=C\C/C=C\C/C=C\C/C=C\CCCC(=O)O [arachidonic acid]
[9]
  critical micelle concentration: about 100 μM
